According to patent publication US20230041743A1, “1,8-NAPHTHYRIDIN-2-ONE COMPOUNDS FOR THE TREATMENT OF AUTOIMMUNE DISEASE” (Hoffmann-La Roche Inc., priority 2019, published 2023):

Target: T1, human TLR7 (Homo sapiens, UniProt Q9NYK1)
T1 construct: host or cells: HEK293 (HEK-Blue hTLR7)
T1 sequence (Q9NYK1 27-1049): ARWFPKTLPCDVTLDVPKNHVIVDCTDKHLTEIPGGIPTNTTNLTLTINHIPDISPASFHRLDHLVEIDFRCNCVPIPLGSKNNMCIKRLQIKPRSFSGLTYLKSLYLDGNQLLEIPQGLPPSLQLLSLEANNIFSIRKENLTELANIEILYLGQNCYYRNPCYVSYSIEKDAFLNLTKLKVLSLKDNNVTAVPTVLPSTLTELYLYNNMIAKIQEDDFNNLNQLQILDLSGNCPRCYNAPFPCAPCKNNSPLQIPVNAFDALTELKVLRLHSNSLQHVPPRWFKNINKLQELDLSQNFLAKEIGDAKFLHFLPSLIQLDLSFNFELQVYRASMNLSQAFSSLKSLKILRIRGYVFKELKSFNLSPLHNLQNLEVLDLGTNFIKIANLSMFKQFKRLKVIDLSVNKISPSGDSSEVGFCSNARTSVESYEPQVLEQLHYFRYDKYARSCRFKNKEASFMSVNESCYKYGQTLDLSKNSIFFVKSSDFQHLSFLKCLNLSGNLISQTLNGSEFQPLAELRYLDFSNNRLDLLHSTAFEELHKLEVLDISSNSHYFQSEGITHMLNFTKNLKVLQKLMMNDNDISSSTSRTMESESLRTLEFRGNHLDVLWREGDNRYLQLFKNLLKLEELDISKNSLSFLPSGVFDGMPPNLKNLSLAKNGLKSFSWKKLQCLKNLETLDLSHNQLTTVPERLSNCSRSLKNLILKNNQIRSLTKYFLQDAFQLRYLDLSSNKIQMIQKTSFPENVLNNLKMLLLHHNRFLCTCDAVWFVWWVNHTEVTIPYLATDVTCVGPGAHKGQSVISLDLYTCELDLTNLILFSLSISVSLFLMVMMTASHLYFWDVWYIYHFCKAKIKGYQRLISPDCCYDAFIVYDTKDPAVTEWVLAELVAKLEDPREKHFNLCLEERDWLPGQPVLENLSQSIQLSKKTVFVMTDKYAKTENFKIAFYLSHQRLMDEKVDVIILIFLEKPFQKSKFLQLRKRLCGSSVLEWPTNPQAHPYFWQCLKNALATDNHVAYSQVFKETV
Test: HEK293-Blue-hTLR-7 cells assay (SEAP reporter, R848 stimulation)
Assay type: cell-based
Conditions: HEK293-Blue-hTLR7 cells, R848 ligand, 20 hrs incubation; read-out: HEK/hTLR7 IC50
From the text: HEK293-Blue-hTLR-7 Cells Assay:
A stable HEK293-Blue-hTLR-7 cell line was purchased from InvivoGen (Cat. #: hkb-htlr7, San Diego, Calif., USA). These cells were originally designed for studying the stimulation of human TLR7 by monitoring the activation of NF-κB. A SEAP (secreted embryonic alkaline phosphatase) reporter gene was placed under the control of the IFN-β minimal promoter fused to five NF-κB and AP-1-binding sites. The SEAP was induced by activating NF-κB and AP-1 via stimulating HEK-Blue hTLR7 cells with TLR7 ligands. Therefore the reporter expression was declined by TLR7 antagonist under the stimulation of a ligand, such as R848 (Resiquimod), for incubation of 20 hrs. The cell culture supernatant SEAP reporter activity was determined using QUANTI-Blue™ kit (Cat. #: rep-qb1, Invivogen, San Diego, Ca, USA) at a wavelength of 640 nm, a detection medium that turns purple or blue in the presence of alkaline phosphatase.
HEK293-Blue-hTLR7 cells were incubated at a density of 250,000-450,000 cells/mL in a volume of 170 μL in a 96-well plate in Dulbecco's Modified Eagle's medium (DMEM) containing 4.5 g/L glucose, 50 U/mL penicillin, […], […], 2 mM L-glutamine, 10% (v/v) heat-inactivated fetal bovine serum with addition of 20 μL test compound in a serial dilution in the presence of final DMSO at 1% and 10 μL of 20 uM R848 in above DMEM, perform incubation under 37° C. in a CO2 incubator for 20 hrs. Then 20 μL of the supernatant from each well was incubated with 180 μL Quanti-blue substrate solution at 37° C. for 2 hrs and the absorbance was read at 620˜655 nm using a spectrophotometer. The signaling pathway that TLR7 activation leads to downstream NF-κB activation has been widely accepted, and therefore similar reporter assay was modified for evaluating TLR7 antagonist.

In order of rising IC50:
1. C[C@@H]1CNCCN1c1ccc2c(c1)CN1[C@H](C)CN(c3cc(=O)n(C)c4ncccc34)C[C@H]21 [Example 17, 4-[(4R,10bS)-4-methyl-8-[(2R)-2-methylpiperazin-1-yl]-3,4,6,10b-tetrahydro-1H-pyrazino[2,1-a]isoindol-2-yl]-1-methyl-1,8-naphthyridin-2-one]  2.8 nM
2. C[C@@H]1CN(c2ccc3c(c2)CN2[C@H](C)CN(c4cc(=O)n(C)c5ncccc45)C[C@H]32)CCN1 [Example 14, 4-[(4R,10bS)-4-methyl-8-[(3R)-3-methylpiperazin-1-yl]-3,4,6,10b-tetrahydro-1H-pyrazino[2,1-a]isoindol-2-yl]-1-methyl-1,8-naphthyridin-2-one]  6.4 nM
3. C[C@@H]1CN(c2cc(=O)n(C)c3ncccc23)C[C@@H]2c3ccc(N4CCC(C)(N)CC4)cc3CN12 [Example 18, 4-[(4R,10bS)-8-(4-amino-4-methyl-1-piperidyl)-4-methyl-3,4,6,10b-tetrahydro-1H-pyrazino[2,1-a]isoindol-2-yl]-1-methyl-1,8-naphthyridin-2-one]  9.8 nM
4. C[C@@H]1CN(c2cc(=O)n(C)c3ncccc23)C[C@@H]2c3ccc(N4CCNCC4)cc3CN12 [Example 12, 4-[(4R,10bS)-4-methyl-8-piperazin-1-yl-3,4,6,10b-tetrahydro-1H-pyrazino[2,1-a]isoindol-2-yl]-1-methyl-1,8-naphthyridin-2-one]  11.9 nM
5. C[C@@H]1CN(c2cc(=O)n(C)c3ncccc23)C[C@@H]2c3ccc(N4CCC[C@](C)(N)C4)cc3CN12 [Example 15, 4-[(4R,10bS)-8-[(3S)-3-amino-3-methyl-1-piperidyl]-4-methyl-3,4,6,10b-tetrahydro-1H-pyrazino[2,1-a]isoindol-2-yl]-1-methyl-1,8-naphthyridin-2-one]  12 nM
6. C[C@@H]1CN(c2cc(=O)n(C)c3ncccc23)C[C@@H]2c3ccc(N4CCN[C@@H](C)C4)cc3CN12 [Example 13, 4-[(4R,10bS)-4-methyl-8-[(3S)-3-methylpiperazin-1-yl]-3,4,6,10b-tetrahydro-1H-pyrazino[2,1-a]isoindol-2-yl]-1-methyl-1,8-naphthyridin-2-one]  13 nM
7. C[C@@H]1CN(c2cc(=O)n(C)c3ncccc23)C[C@@H]2c3ccc(N4CC5CCC(C4)N5)cc3CN12 [Example 21, 4-[(4R,10bS)-8-(3,8-diazabicyclo[3.2.1]octan-3-yl)-4-methyl-3,4,6,10b-tetrahydro-1H-pyrazino[2,1-a]isoindol-2-yl]-1-methyl-1,8-naphthyridin-2-one]  13.7 nM
8. C[C@@H]1CN(c2cc(=O)n(C)c3ncccc23)C[C@@H]2c3ccc(N4C[C@@H]5C[C@H]4CN5)cc3CN12 [Example 19, 4-[(4R,10bS)-8-[(1S,4S)-2,5-diazabicyclo[2.2.1]heptan-2-yl]-4-methyl-3,4,6,10b-tetrahydro-1H-pyrazino[2,1-a]isoindol-2-yl]-1-methyl-1,8-naphthyridin-2-one]  15.6 nM
9. C[C@@H]1CN(c2cc(=O)n(C)c3ncccc23)C[C@@H]2c3ccc(N4CCC[C@@H](N)C4)cc3CN12 [Example 16, 4-[(4R,10bS)-8-[(3R)-3-amino-1-piperidyl]-4-methyl-3,4,6,10b-tetrahydro-1H-pyrazino[2,1-a]isoindol-2-yl]-1-methyl-1,8-naphthyridin-2-one]  15.9 nM
10. C[C@@H]1CN(c2cc(=O)n(C)c3ncccc23)C[C@@H]2c3ccc(N4CCOC5(CNC5)C4)cc3CN12 [Example 11, 4-[(4R,10bS)-4-methyl-8-(5-oxa-2,8-diazaspiro[3.5]nonan-8-yl)-3,4,6,10b-tetrahydro-1H-pyrazino[2,1-a]isoindol-2-yl]-1-methyl-1,8-naphthyridin-2-one]  30.5 nM
11. C[C@@H]1CN(c2cc(=O)n(C)c3ncccc23)C[C@@H]2c3ccc(N4C[C@H]5C[C@@H]4CN5)cc3CN12 [Example 20, 4-[(4R,10bS)-8-[(1R,4R)-2,5-diazabicyclo[2.2.1]heptan-2-yl]-4-methyl-3,4,6,10b-tetrahydro-1H-pyrazino[2,1-a]isoindol-2-yl]-1-methyl-1,8-naphthyridin-2-one]  52.1 nM
